We go through 17 compounds from patent US20230132386A9, “GRANZYME B DIRECTED IMAGING AND THERAPY” (CytoSite Biopharma Inc., priority 2019, published 2023).

For orientation: IC50 means the concentration needed to halve the response being measured. High values mean a need for much substance, low ones inhibition by little substance.

Data set [1] has as its target T1, Granzyme B (human lymphocytes) (Homo sapiens, UniProt P10144).
T1 construct: Supplied Granzyme B (human lymphocytes) enzyme is reconstituted to 1 mg/ml (about 31.25 μM); purchased Enzo Lifesciences ALX-200-602-0010; host or cells: human lymphocytes
Kind of data set: human Granzyme B biochemical assay. The following applies: Granzyme B (human lymphocytes) 5 nM, substrate Ac-IETD-AFC 200 μM, 30 mins incubation, 22° C. From the text: The compounds of Formula I described above can be tested using the human Granzyme B biochemical assay provided below.
• 1. Granzyme B (human lymphocytes) Enzyme: Enzo Lifesciences, Cat #ALX-200-602-0010 • 2. Substrate (Ac-IETD-AFC): Enzo Lifesciences, Cat #ALX-260-110-M010 • 3. Standard inhibitor (Compound 20-Isomer3): Synthesized internally in TCG • 4. Dimethyl sulfoxide (DMSO): Sigma-Aldrich, Cat #41639 • 5. HEPES: Gibco, Cat #15630-080 • 6. Calcium chloride: Sigma-Aldrich, Cat #C-5080 • 7. Distilled water: Gibco, Cat #15230-162 • 8. Bovine serum albumin (BSA): Sigma-Aldrich, Cat #A3059 • 9. Black, clear bottom PDL plate (384 wells): Greiner bio-one, Cat #781946 • 10. Polypropylene plate (384 wells): Corning, Cat #3657
• 1. DMSO is added to the respective compound vial to make 10 mM Compound stock solution, which is stored at −20° C. • 2. 10 mM Compound stock solution is thawed and 1 mM DMSO stock solution is prepared by adding 45 μl of DMSO to 5 μl of 10 mM compound stock solution. • 3. 1 mM DMSO stock solution is serially diluted (3.16 fold) by adding 10 μl of 1 mM DMSO stock to 21.6 μl of DMSO and mixed well. 10 μl of the resulting solution is then added to 21.6 μl of DMSO and mixed well. This process is continued to created 11 dilution points for the assay standard inhibitor and 8 dilution points for test compounds in 384 well polypropylene plate. • 4. 2 μl of each dilution are dispensed in assay ready plate. 5. Each well is then diluted 25 fold by adding 48 μl of assay buffer to 2 μl of compound in assay ready plate to make Compound working stock.
• 1. Supplied Granzyme B (human lymphocytes) enzyme is reconstituted to 1 mg/ml (about 31.25 μM) and 1 μl aliquots are kept in −80° C. • 2. 1 μl aliquot is diluted to 625 nM by adding 49 μl of assay buffer containing 0.1% BSA and gently mixed. • 3. 10 nM enzyme working stock is prepared by adding assay buffer containing 0.1% BSA.
• 1. Supplied substrate (Ac-IETD-AFC) is reconstituted by adding DMSO to make 10 mM stock, aliquoted and stored in −80° C. • 2. 4 mM substrate mid stock is prepared by adding DMSO. • 3. Substrate working stock i.e. 800 μM is prepared by adding assay buffer.
• 1. 10 μl of serially diluted Compound working stock (start dose 40 μM) is added from assay ready plate to assay plate according to the plate map. • 2. Positive control (40 μM of standard inhibitor) and negative control (4% DMSO buffer) are added to the respective wells. • 3. 20 μl of Enzyme working stock is added to assay plate and gently mixed. • 4. The plate is incubated at 22° C. for 30 mins and spun at 130 g for 1 minute. • 5. After incubation, 10 μl of Substrate working stock is added to respective wells and mixed (Assay plate is maintained in dark after substrate addition). • 6. The plate is incubated at 22° C. for 60 mins and spun at 130 g for 1 minute. • 7. Fluorescence read (RFU) (Ex: 400 nm/Em: 505 nm) is taken after 60 mins in EnVision Multimode plate reader.
• 1. The RFU read is analyzed to calculate percent inhibition by normalizing with positive and negative controls taken as 100% and 0% effect respectively in Microsoft excel. • 2. Graph is generated by putting the analyzed data in GraphPad prism 5.0 software to get IC50 value for each compound.

The nature of data set [2]: metabolic stability assay using liver microsomes. The conditions noted are these: human liver microsomes 0.4 mg/ml, 1 μM, NRS, 37° C. It is filed as in vitro ADME. The method, then: In addition, compounds of Formula I described above are also tested in the metabolic stability assay using liver microsomes, as provided below.
Buffer pH7.4: Prepare 1 (M) KH2PO4 and 1 (M) K2HPO4. Titrate 1(M) K2HPO4 with 1 (M) KH2PO4 to obtain pH 7.40. Dilute this buffer 10 fold in Water (30 ml buffer+270 ml of water) to obtain 100 mM phosphate buffer. Adjust pH to 7.40±0.02 using 5(N) HCl or 5(N) NaOH.
NADPH Regeneration System (NRS): Prepare a solution containing 13 mM NADP, 33 mM Glucose-6-phosphate, 33 mM MgCl2 and 4 U/ml Glucose-6-phosphate dehydrogenase in buffer.
Liver Microsome (LM) suspension: Thaw LM vial on ice, then mix 1.0 ml LM (20 mg/ml) with 19 ml buffer [final LM Conc: 1 mg/ml]
LM+NRS suspension: Mix 5.0 ml NRS with 20 ml LM suspension [final LM Conc: 0.8 mg/ml]
System suitability standard: a synthesized compound having Mol wt 686.2 used as System suitability standard. Dissolve this compound in ice-cold acetonitrile to obtain concentration of 0.1 μg/ml and store at 4° C.
Sub stock (100 μM): 4 μl of 10 mM Compound Stock+398 μl Acetonitrile Working plate (2 μM): 10 μl of 100 μM Sub stock+490 μl buffer
Incubate all plastic materials including tips at 37° C. overnight.
Incubate LM suspension and NRS at 37° C. for 15 min before use.
Add 40 μl buffer to the wells of blank plate.
Add 40 μl compound (from working plate) to 0, 5, 10, 20, 30 and 60 min plates.
Initiate reaction by adding 40 μl of LM+NRS suspension in each plate.
Terminate reaction by adding 240 μl ice-cold acetonitrile containing system suitability standard at designated time points. For T=0 add 240 μl ice-cold acetonitrile containing system suitability standard before LM+NRS addition.
Centrifuge (3500 rpm, 20 min and 15° C.) the plates.
Mix 110 μl supernatant with 110 μl water and quantitate amount of Compound in the solution using LC-MS/MS.
% Remaining at t=x min=100×([LC-MS/MS peak area of analyte]t=x min)/([LC-MS/MS peak area of analyte]t=0min)
Human LM: Corning, Cat #25117
Certain compounds of this disclosure were tested in the microsomal stability assay provided above.

T1 sequence (P10144 21-247): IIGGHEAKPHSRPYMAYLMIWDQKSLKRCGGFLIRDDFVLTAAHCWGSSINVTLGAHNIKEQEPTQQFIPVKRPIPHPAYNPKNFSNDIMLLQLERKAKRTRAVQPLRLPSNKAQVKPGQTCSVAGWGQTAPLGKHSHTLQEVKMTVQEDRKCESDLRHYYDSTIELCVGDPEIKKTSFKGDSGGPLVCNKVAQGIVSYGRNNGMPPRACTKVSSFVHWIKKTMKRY

In turn, `CC[C@H](C)[C@@H](C(=O)N[C@H]1CCc2cccc3c2N(C1=O)[C@H](C(=O)NCc1c[nH]nn1)C3)N(CCOCCCF)C(=O)Cc1nc2ccccc2o1` (single isomer, unassigned) [Compound C179] displayed an IC50 in data set [1] of 0.301 to 1 µM.

As to `CC[C@H](C)[C@@H](C(=O)N[C@H]1CCc2cccc3c2N(C1=O)[C@H](C(=O)NCc1c[nH]nn1)C3)N(C)C(=O)CC(N)=O` (single isomer, unassigned) [Compound C191], the IC50 in data set [1] was 0.301 to 1 µM. The “Human Liver Microsomes % remaining @30 min” value in data set [2] is 83.6%.

`CC[C@H](C)[C@@H](C(=O)N[C@H]1CCc2cccc3c2N(C1=O)[C@H](C(=O)NCc1c[nH]nn1)C3)N(CCc1csc2ccccc12)C(C)=O` (single isomer, unassigned) [Compound C184] registered an IC50 in data set [1] greater than 5 µM.

With `CC[C@H](C)[C@@H](C(=O)N[C@H]1CCc2cccc3c2N(C1=O)[C@H](C(=O)NCc1c[nH]nn1)C3)N(C(=O)COCCF)C(C)C` (single isomer, unassigned) [Compound C177], the IC50 in data set [1] is 1 to 5 µM.

In data set [1], `CC[C@H](C)[C@@H](C(=O)N[C@H]1CCc2cccc3c2N(C1=O)[C@H](C(=O)NCc1c[nH]nn1)C3)N(C)C(=O)CC(=O)N(C)C` (single isomer, unassigned) [Compound C193] displayed an IC50 of 0.301 to 1 µM.

With `CC[C@H](C)[C@@H](C(=O)N[C@H]1CCc2cccc3c2N(C1=O)[C@H](C(=O)NCc1c[nH]nn1)C3)N(C)C(=O)CC(=O)OC` (single isomer, unassigned) [Compound C194], the IC50 in data set [1] lay in the range of 0.301 to 1 µM.

Take `CC[C@H](C)[C@@H](C(=O)N[C@H]1CCc2cccc3c2N(C1=O)[C@H](C(=O)NCc1c[nH]nn1)C3)N(CCC(=O)O)C(=O)COCCF` (single isomer, unassigned) [Compound C230]: in data set [1], the IC50 lay in the range of 0.301 to 1 µM. The “Human Liver Microsomes % remaining @30 min” value in data set [2] was found to be 98.2%.

In turn, `CC[C@H](C)[C@@H](C(=O)N[C@H]1CCc2cccc3c2N(C1=O)[C@H](C(=O)NCc1c[nH]nn1)C3)N(C)C(=O)Cn1ccnc1` (single isomer, unassigned) [Compound C198] yielded an IC50 in data set [1] of 0.301 to 1 µM. For the same compound, in data set [2], the “Human Liver Microsomes % remaining @30 min” value came to 55.4%.

In data set [1], `CC[C@H](C)[C@@H](C(=O)N[C@H]1CCc2cccc3c2N(C1=O)[C@H](C(=O)NCc1c[nH]nn1)C3)N(C)C(=O)COCCF` (single isomer, unassigned) [Compound C155] registered an IC50 of 0.301 to 1 µM. Besides, the “Human Liver Microsomes % remaining @30 min” value in data set [2] came to 66.3%.

`CC[C@H](C)[C@@H](C(=O)N[C@H]1CCc2cccc3c2N(C1=O)[C@H](C(=O)NCc1c[nH]nn1)C3)N(C)C(=O)CC(=O)O` (single isomer, unassigned) [Compound C190] displayed an IC50 in data set [1] of 0.301 to 1 µM.

In turn, `CC[C@H](C)[C@@H](C(=O)N[C@H]1CCc2cccc3c2N(C1=O)[C@H](C(=O)NCc1c[nH]nn1)C3)N(CCOCCF)C(C)=O` (single isomer, unassigned) [Compound C203] registered an IC50 in data set [1] of 0.301 to 1 µM.

In data set [1], `CC[C@H](C)[C@@H](C(=O)N[C@H]1CCc2cccc3c2N(C1=O)[C@H](C(=O)NCc1c[nH]nn1)C3)N(CCOCCF)C(=O)Cc1nc2ccccc2o1` (single isomer, unassigned) [Compound C178] displayed a half-inhibitory concentration (IC50) of 0.301 to 1 µM. The “Human Liver Microsomes % remaining @30 min” value in data set [2] is reported as 0.8%.

In the case of `CC[C@H](C)[C@@H](C(=O)N[C@H]1CCc2cccc3c2N(C1=O)[C@H](C(=O)NCc1c[nH]nn1)C3)N(C)C(=O)CC(=O)NC` (single isomer, unassigned) [Compound C192], the IC50 in data set [1] was 0.301 to 1 µM. Further, the “Human Liver Microsomes % remaining @30 min” value in data set [2] was found to be 72.8%.

In data set [1], `CC[C@H](C)[C@@H](C(=O)N[C@H]1CCc2cccc3c2N(C1=O)[C@H](C(=O)NCc1c[nH]nn1)C3)N(C)C(=O)Cc1csc2ccccc12` (single isomer, unassigned) [Compound C152] displayed a half-inhibitory concentration (IC50) of 0.301 to 1 µM.

For the compound `CC[C@H](C)[C@@H](C(=O)N[C@H]1CCc2cccc3c2N(C1=O)[C@H](C(=O)NCc1c[nH]nn1)C3)N(C)C(=O)Cc1c[nH]cn1` (single isomer, unassigned) [Compound C197], in data set [1], the IC50 fell in the range of 0.301 to 1 µM.

Regarding `CC[C@H](C)[C@@H](C(=O)N[C@H]1CCc2cccc3c2N(C1=O)[C@H](C(=O)NCc1c[nH]nn1)C3)N(CC)C(=O)COCCF` (single isomer, unassigned) [Compound C176], the IC50 in data set [1] was in the range of 0.301 to 1 µM.

Turning to “N-Methyl-N-((1S,2S)-2-methyl-1- {(1S,8S)-9-oxo-1-[(1H-[1,2,3]triazol- 4-y lmethyl)-carbamoyl]-1,2,8,9- tetrahydro-7H-6-oxa-9a-aza- benzo[cd]azu1en-8-ylcarbamoyl}- butyl)-malonamic acid [Compound C214]”, the IC50 in data set [1] was 0.301 to 1 µM. The “Human Liver Microsomes % remaining @30 min” value in data set [2] is 100.0%.
